In patent US8748468B2, “Manufacture, compositions and uses of coagulation factor VIIa modulator” (Pharmacyclics, Inc., priority 2007, dated 2014):
Entries after “also recorded” stand apart in the source; their conditions may differ. Read-outs that look alike come from different tables or passages of the source.

Legend:
[1] = Animal PK studies, subcutaneous, rat; settings: in vivo, sc, subcutaneous administration, read-out: terminal half-life (t1/2) (converted)
[2] = Animal PK studies, subcutaneous bioavailability across species; type: in vivo; settings: rat, dog, monkey, baboon, plasma, sc; administered subcutaneously in a solution; rats, dogs, monkeys, and baboons
[3] = Animal PK studies, subcutaneous, baboon; type: in vivo; settings: plasma, sc
[4] = tested on: Lewis lung carcinoma tumor; assay: Lewis lung carcinoma tumor growth in C57BL mice; type: in vivo; settings: for tumor volume compared to the control: gel formulation SC, 6, 9, 13, and 15 days after start of dosing
Method: In this example, the compound of Formula I was administered subcutaneously starting 4 days after tumor cell implantation in the mice (the two different dosing schedules are described in FIG. 2). […] As a result, the compound of Formula I inhibits the growth of tumor cells.
In a follow-up tumor suppression study, the compound of Formula I reduced Lewis lung carcinoma tumor growth in C57BL mice by approximately 50% when given twice daily at subcutaneous doses 22.5, 45, and 90 mg/kg (FIG. 3).
The compound of Formula I was administered in a gel formulation subcutaneously starting 4 days after tumor cell implantation. Tumor volume in the control experiment continued to increase from about 100 mm^3 at 6 days to above 400 mm^3 after 13 days and above 500 mm^3 after 15 days after start of dosing.

[5] = tested on: FVIIa-induced IL-8 response in MDA-MB-231 human breast cancer cells; assay: FVIIa-induced IL-8 response in MDA-MB-231 human breast cancer cells; type: cell-based; settings: 1 μM added to the medium; MDA-MB-231 cells incubated with FVIIa
Source text: Secretion of the chemokine IL-8 increased to over 3-fold of baseline.

[6] = Plasma concentrations in C57BL/6 mice (LC-MS/MS); type: in vivo; settings: for Drug plasma concentrations: all dose levels
Method: (§1) C57BL/6 mice were dosed with a compound of Formula I in a gel composition by subcutaneous injection twice daily for 2 days. Plasma concentrations of a compound of Formula I were measured by LC-MS/MS at select time points following doses 3 and 4. Following drug administration, plasma levels were elevated in a dose dependent manner reaching 15 ug/ml 3 hours after dose 3 at 45 mg/kg/dose. […] Maximal drug plasma levels reached greater than 30 ug/ml 2 hours following dose 4 at 45 mg/kg/dose and dropped to 13 ug/ml by 4 hours post dosing. […] Prothrombin (PT) times were measured at 0 (predose), 2, 4, and 18 hours after the 4th dose administration.

[7] = Animal PK studies, subcutaneous, monkey; settings: in vivo, sc, subcutaneous administration, read-out: terminal half-life (t1/2)
[8] = tested on: Prothrombin (PT) time; assay: Prothrombin time changes in C57BL/6 mice; type: in vivo; settings: 2 hours following the 4th dose, 45 mg/kg/dose, gel SC twice daily
Method: as §1

[9] = tested on: B16F10 melanoma cells; assay: Lung colonization by B16F10 melanoma cells in mice; type: in vivo; settings: 1.5 h before and 4.5 h and 24 h after tumor cell inoculation, compared to control vehicle
Method: In this experiment, the compound of Formula I was administered subcutaneously 1.5 h before tumor cell inoculation, and then 4.5 h and 24 h after tumor cell inoculation. In the absence of the compound of Formula I (i.e., the vehicle alone), a substantial number of colonies formed in the majority of the inoculated mice. […] As a result, in some embodiments, the compound of Formula I inhibit the metastasis of tumor cells.
The compound of Formula I (3×50 mg/kg; 3×100 mg/kg) and a control vehicle were administered subcutaneously 1.5 hours before tumor cell inoculation and then at 4.5 hours and 24 hours after tumor cell inoculation.

[10] = Animal PK studies, subcutaneous, dog; type: in vivo; settings: plasma, sc
Method: In dogs, the time to reach maximum plasma concentrations (Tmax) following subcutaneous injection of a compound of Formula I was 0.5 hours.

[11] = Pharmacokinetics after intravenous and subcutaneous administration in cynomolgus monkeys; type: in vivo; settings: for AUC(0-t): read-out: AUC 0-48
Method: A study was performed in cynomolgus monkeys with the compound of Formula I to provide information on its pharmacokinetics following intravenous and subcutaneous administration and to determine its subcutaneous bioavailability. The test compound was administered intravenously in a solution (1.76 mg/mL) composition and subcutaneously in a gel composition (107 mg/mL).

[12] = Toxicology study, 28 or 29 days subcutaneous, cynomolgus monkeys; type: in vivo; settings: for NOAEL: sc
Method: Cynomolgus monkeys were administered a gel formulation of a compound of Formula I twice daily by subcutaneous injection for 28 or 29 consecutive days at a total daily dosage of 0 (vehicle), 3, 12, or 36 mg/kg/day (HED=0.96, 3.84, and 11.5 mg/kg/day, respectively).

[13] = subcutaneous administration, read-out: terminal half-life (t1/2) (converted)
[14] = cynomolgus monkey, plasma, sc, Subcutaneous Gel, 10.7 mg/kg, n = 3
[15] = cynomolgus monkey, plasma, Intravenous Solution, 1.76 mg/kg, n = 4

Compound N=C(N)c1ccc2nc(-c3cc(CC(=O)N[C@@H](CC(=O)O)C(=O)O)cc(-c4cc(S(N)(=O)=O)ccc4O)c3O)[nH]c2c1 [compound of Formula I] has a half-life [1] of 2.67 h, a bioavailability [2] of 95 to 124% and a half-life [3, 13] of 7.21 h. For the same compound, the Tmax ([3]; subcutaneous injection, baboons, read-out: time to reach maximum plasma concentrations (Tmax)) was 2.75 h, the “reduction in tumor volume” value ([4]; SC starting 4 days after tumor cell implantation, depending on the dosing schedule, p<0.01) was at least 50% and the “reduction of Lewis lung carcinoma tumor growth” value ([4]; follow-up study, twice daily subcutaneous doses 22.5, 45, and 90 mg/kg) was “approximately 50%”. For the same compound, the “tumor volume compared to the control” value ([4]; 100 mg/kg bid x4d followed by 60 mg/kg bid, P<0.01) was “a reduction in the tumor volume”, the “tumor volume compared to the control” value ([4]; 150 mg/kg bid x4d followed by 90 mg/kg bid, P≦0.01) was “a reduction in the tumor volume” and the “FVIIa-induced IL-8 response” value [5] was “completely abrogated”. For the same compound, the Drug plasma concentrations ([6]; 6 hours after dose 3) was “had dropped significantly”, the Drug plasma concentrations ([6]; 18 hours following dose 4) was “at or near baseline” and the Drug plasma concentration ([6]; gel SC twice daily, 2 hours following dose 4 at 22.5 mg/kg/dose) was 11000 ng/mL. For the same compound, the “Maximal drug plasma level” value ([6]; gel SC twice daily, 2 hours following dose 4 at 45 mg/kg/dose) was “greater than 30 ug/ml”, the plasma level ([6]; gel SC twice daily, 3 hours after dose 3 at 45 mg/kg/dose) was 15000 ng/mL and the Drug plasma concentration ([6]; gel SC twice daily, 4 hours following dose 4 at 22.5 mg/kg/dose) was “stayed elevated”. The drug plasma level ([6]; gel SC twice daily, 4 hours post dose 4 at 45 mg/kg/dose) was 13000 ng/mL, the half-life [7] was 5.4 to 8.14 h and the “maximal change in PT time” value [8] was 1.8 times baseline. For the same compound, the “Bl6F10 colonies formed in the lung” value ([9]; 3×50 mg/kg SC, 50 mg/kg) was “substantially fewer colonies were formed”, the “Bl6F10 colonies formed in the lung” value ([9]; 3×100 mg/kg SC, 100 mg/kg) was “substantially fewer colonies; also recorded: the number of colonies further dropped” and the half-life [10, 13] was 5.68 h. For the same compound, the Tmax ([10]; subcutaneous injection, dogs, read-out: time to reach maximum plasma concentrations (Tmax)) was 0.5 h, the “subcutaneous Cmax as percent of the Cmax observed following intravenous dose” value ([11]; 10.7 mg/kg subcutaneous vs 1.76 mg/kg intravenous) was 74% and the half-life ([11]; cynomolgus monkey, plasma, iv, 1.76 mg/kg, Intravenous Solution, 1.76 mg/kg, n = 4, read-out: t1/2 α (converted)) was 0.162 h. For the same compound, the half-life ([11]; cynomolgus monkey, plasma, iv, 1.76 mg/kg, Intravenous Solution, 1.76 mg/kg, n = 4, read-out: t1/2 β (converted)) was 2.19 h, the half-life ([11]; cynomolgus monkey, plasma, iv, 1.76 mg/kg, Intravenous Solution, 1.76 mg/kg, n = 4, read-out: t1/2 γ (converted)) was 7.07 h and the half-life ([11]; cynomolgus monkey, plasma, sc, 10.7 mg/kg, Subcutaneous Gel, 10.7 mg/kg, n = 3, read-out: Terminal t1/2 (converted)) was 7.43 h. For the same compound, the Cmax ([11]; cynomolgus monkey, plasma, sc, Subcutaneous Gel (107 mg/mL), 10.7 mg/kg, n = 3) was 11600 ng/mL, the AUC(0-inf) [11, 14] was 172 µg·h/mL and the CL/F [11, 14] was 1.07 mL/min/kg. For the same compound, the Tmax [11, 14] was 3.33 h, the AUC(0-t) [11, 14] was 171 µg·h/mL and the bioavailability ([11]; cynomolgus monkey, plasma, sc, Subcutaneous Gel, single 10.7 mg/kg dose, n = 3, estimated, read-out: Bioavailabilty (subcutaneous)) was 138 ± 33%. For the same compound, the Cmax [11, 15] was 15700 ng/mL, the MRT [11, 15] was 5.15 h and the clearance [11, 15] was 1.4 mL/min/kg. The AUC(0-t) [11, 15] was 21.2 µg·h/mL, the Vd ([11]; cynomolgus monkey, plasma, Intravenous Solution, 1.76 mg/kg, n = 4, read-out: Vss) was 0.43 L/kg and the “sternum-bone marrow and spleen findings” value ([12]; cynomolgus monkey, in vivo) was “shifts indicative of increased erythropoiesis”. For the same compound, the kidney medulla finding ([12]; cynomolgus monkey, in vivo, 36 mg/kg/day) was “minimal to mild widening of the interstitium along the medullary rays”, the NOAEL ([12]; cynomolgus monkey, in vivo) was 3 mg/kg/day and the NOAEL ([12]; cynomolgus monkey, in vivo, subcutaneous administration for 28 or 29 consecutive days, read-out: NOAEL as HED) was 0.96 mg/kg/day. For the same compound, the unscheduled euthanasia ([12]; one female, 36 mg/kg/day group, abnormally high aPTT prior to dosing) was “euthanized after 3 days of dosing due to severe external hemorrhage”.
